Consider seven compounds from patent publication US20250170130A1, “MODULATORS OF MYC FAMILY PROTO-ONCOGENE PROTEIN” (Nalo Therapeutics, priority 2022, published 2025).

Read-outs that look alike come from different tables or passages of the source.

In assay [1] the target is T1, MycC (Homo sapiens, UniProt P01106).
T1 construct: endogenous in cells; host or cells: L363
The experiment in a line: Degradation of MycC protein in L363 cells, JESS/Western blot of lysates. It is filed as cell-based. As to conditions: L-363, 24 h; for Dmax at 0.5 µM: read-out: % Degradation of MycC (L-363) 24 h, 0.5 μM; for Dmax at 1 µM: read-out: % Degradation of MycC (L-363) 24 h, 1 μM; for Dmax at 3 µM: read-out: % Degradation of MycC (L-363) 24 h, 3 μM; for Dmax at 6 µM: read-out: % Degradation of MycC (L-363) 24 h, 6 μM. The essentials: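 L363 suspension cells were seeded at 1E6 cells per well and exposed to compound (stock 10 mM in DMSO) for 24 hrs. Cells were collected, spun down, rinsed with PBS, lysed in RIPA buffer cocktail on ice, clarified and kept at −80 degrees. Lysate protein was quantified by BCA, and c-myc was measured on JESS by chemiluminescence with tubulin and GAPDH loading controls in the NIR channel.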
Background: A western blot detects proteins with antibodies after separation by electrophoresis.

The target of assay [2] is T2, MycN (Homo sapiens, UniProt P04198).
T2 construct: endogenous in cells; host or cells: SK-N-BE(2)
T2 sequence (P04198 1-464): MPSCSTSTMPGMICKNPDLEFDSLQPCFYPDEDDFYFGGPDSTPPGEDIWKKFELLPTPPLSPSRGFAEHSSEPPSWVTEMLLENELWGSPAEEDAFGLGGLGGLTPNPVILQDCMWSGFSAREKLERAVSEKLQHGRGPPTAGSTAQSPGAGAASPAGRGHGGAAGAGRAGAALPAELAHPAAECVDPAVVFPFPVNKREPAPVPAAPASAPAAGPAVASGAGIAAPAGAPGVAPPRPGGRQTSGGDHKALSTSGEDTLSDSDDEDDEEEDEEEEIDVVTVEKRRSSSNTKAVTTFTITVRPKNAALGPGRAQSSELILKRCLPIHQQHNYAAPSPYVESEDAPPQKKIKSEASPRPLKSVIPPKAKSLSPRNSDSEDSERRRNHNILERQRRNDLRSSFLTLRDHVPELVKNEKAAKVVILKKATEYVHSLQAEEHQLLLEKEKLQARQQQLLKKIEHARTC
The experiment in a line: Degradation of MycN protein in SK-N-BE(2) cells, JESS/Western blot of lysates. It is filed as cell-based. The note with it: SKNBE2, 24 h; for Dmax at 0.5 µM: read-out: % Degradation of MycN (SKNBE2) 24 h, 0.5 μM; for Dmax at 1 µM: read-out: % Degradation of MycN (SKNBE2) 24 h, 1 μM; for Dmax at 3 µM: read-out: % Degradation of MycN (SKNBE2) 24 h, 3 μM; for Dmax at 6 µM: read-out: % Degradation of MycN (SKNBE2) 24 h, 6 μM. The essentials:
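SK-N-BE(2) adherent cells (5E5 per well of a 6 well dish) were grown 24 hrs, then exposed to compounds diluted 1 in 20 in media, with DMSO controls, for 24 hrs. Cells were scraped, pelleted, PBS washed and lysed in RIPA buffer cocktail; after BCA protein quantitation, n-myc was detected by chemiluminescence on JESS/Western blot with tubulin and GAPDH loading controls read in the near infra red channel.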

T1 sequence (P01106 whole entry): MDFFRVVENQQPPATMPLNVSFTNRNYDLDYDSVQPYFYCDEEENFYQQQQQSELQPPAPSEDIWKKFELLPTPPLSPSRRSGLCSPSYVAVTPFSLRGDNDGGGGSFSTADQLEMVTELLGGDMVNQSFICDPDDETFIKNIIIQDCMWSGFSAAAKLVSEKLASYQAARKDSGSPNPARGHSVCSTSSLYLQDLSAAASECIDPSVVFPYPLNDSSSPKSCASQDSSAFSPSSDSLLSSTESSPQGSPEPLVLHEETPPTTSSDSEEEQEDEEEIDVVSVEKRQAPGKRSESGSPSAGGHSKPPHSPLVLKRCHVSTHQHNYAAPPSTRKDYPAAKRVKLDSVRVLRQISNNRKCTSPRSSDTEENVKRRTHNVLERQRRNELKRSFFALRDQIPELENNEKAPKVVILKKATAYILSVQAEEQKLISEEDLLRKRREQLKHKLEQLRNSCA

`CN1CC2(C1)CN(c1nccc(Nc3cc(C4CC4)[nH]n3)n1)C2` [Compound 4, N-(5-Cyclopropyl-1H-pyrazol-3-yl)-2-(6-methyl-2,6-diazaspiro[3.3]heptan-2-yl)pyrimidin-4-amine]: the Dmax at 0.5 µM in assay [1] (L-363 cells, 24 h, 0.5 μM) is less than 20%; in assay [2] (SKNBE2 cells, 24 h, 0.5 μM), less than 20%. Also, the Dmax at 1 µM lay in the range of 20 to 49% in assay [1] (L-363 cells, 24 h, 1 μM) and 20 to 49% in assay [2] (SKNBE2 cells, 24 h, 1 μM). Further, the Dmax at 3 µM in assay [1] (L-363 cells, 24 h, 3 μM) is 80 to 100%; in assay [2] (SKNBE2 cells, 24 h, 3 μM), 20 to 49%. Also, the Dmax at 6 µM in assay [1] (L-363 cells, 24 h, 6 μM) was 80 to 100%; in assay [2] (SKNBE2 cells, 24 h, 6 μM), 20 to 49%.
With `CN(C)CC1CCN(c2nccc(Nc3cc(C4CC4)[nH]n3)n2)CC1` [Compound 5, N-(5-Cyclopropyl-1H-pyrazol-3-yl)-2-(4-((dimethylamino)methyl)piperidin-1-yl)pyrimidin-4-amine], the Dmax at 0.5 µM in assay [1] (L-363 cells, 24 h, 0.5 μM) was less than 20%. Further, in assay [1] (L-363 cells, 24 h, 1 μM), the Dmax at 1 µM is less than 20%. Moreover, in assay [1] (L-363 cells, 24 h, 3 μM), the Dmax at 3 µM is 20 to 49%. In addition, the Dmax at 6 µM in assay [1] (L-363 cells, 24 h, 6 μM) lay within 20 to 49%; in assay [2] (SKNBE2 cells, 24 h, 6 μM), 20 to 49%.
For the compound `O=C1c2ccccc2C(=O)N1CC12CC(CN(c3nccc(Nc4cc(C5CCCC5)[nH]n4)n3)C1)C2` [Compound 127, 2-[[3-[4-[(5-Cyclopentyl-1H-pyrazol-3-yl)amino]pyrimidin-2-yl]-3-azabicyclo[3.1.1]heptan-1-yl]methyl]isoindoline-1,3-dione], in assay [1], the Dmax at 0.5 µM is less than 20%, the Dmax at 1 µM fell in the range of 80 to 100%, the Dmax at 3 µM was 80 to 100% and the Dmax at 6 µM lay in the range of 80 to 100%. Further, in assay [2], the Dmax at 0.5 µM lay in the range of 50 to 79%, the Dmax at 1 µM fell in the range of 80 to 100%, the Dmax at 3 µM is 80 to 100% and the Dmax at 6 µM lay in the range of 80 to 100%.
Consider `CN(C)CCCN(C)c1nccc(Nc2cc(C3CC3)[nH]n2)n1` [Compound 48, N^4-(5-cyclopropyl-1H-pyrazol-3-yl)-N^2-[3-(dimethylamino)propyl]-N^2-methyl-pyrimidine-2,4-diamine], for which the Dmax at 1 µM in assay [1] (L-363 cells, 24 h, 1 μM) is 20 to 49%; in assay [2] (SKNBE2 cells, 24 h, 1 μM), less than 20%. Moreover, the Dmax at 3 µM in assay [1] (L-363 cells, 24 h, 3 μM) was less than 20%; in assay [2] (SKNBE2 cells, 24 h, 3 μM), less than 20%. The Dmax at 6 µM in assay [1] (L-363 cells, 24 h, 6 μM) is 20 to 49%; in assay [2] (SKNBE2 cells, 24 h, 6 μM) it was less than 20%. The Dmax at 0.5 µM in assay [2] (SKNBE2 cells, 24 h, 0.5 μM) is less than 20%.
For `NCC1CN(c2nccc(Nc3cc(C4CCCC4)[nH]n3)n2)CC1(F)F` (stereo not drawn) [Compound 125, 2-[4-(Aminomethyl)-3,3-difluoro-pyrrolidin-1-yl]-N-(5-cyclopentyl-1H-pyrazol-3-yl)pyrimidin-4-amine], the Dmax at 0.5 µM in assay [1] (L-363 cells, 24 h, 0.5 μM) was 20 to 49%; in assay [2] (SKNBE2 cells, 24 h, 0.5 μM) it was 20 to 49%. For the same compound, the Dmax at 1 µM lay within 20 to 49% in assay [1] (L-363 cells, 24 h, 1 μM) and 20 to 49% in assay [2] (SKNBE2 cells, 24 h, 1 μM). The Dmax at 6 µM in assay [1] (L-363 cells, 24 h, 6 μM) lay in the range of 80 to 100%; in assay [2] (SKNBE2 cells, 24 h, 6 μM), 80 to 100%. Also, in assay [2] (SKNBE2 cells, 24 h, 3 μM), the Dmax at 3 µM was in the range of 50 to 79%.
As for `NC[C@H]1CN(c2nccc(Nc3cc(C4CCCC4)[nH]n3)n2)CCO1` [Compound 187, 2-[(2S)-2-(Aminomethyl)morpholin-4-yl]-N-(5-cyclopentyl-1H-pyrazol-3-yl)pyrimidin-4-amine], the Dmax at 0.5 µM in assay [1] (L-363 cells, 24 h, 0.5 μM) is less than 20%; in assay [2] (SKNBE2 cells, 24 h, 0.5 μM), 20 to 49%. The Dmax at 1 µM lay in the range of 20 to 49% in assay [1] (L-363 cells, 24 h, 1 μM) and 20 to 49% in assay [2] (SKNBE2 cells, 24 h, 1 μM). For the same compound, the Dmax at 3 µM in assay [1] (L-363 cells, 24 h, 3 μM) fell in the range of 20 to 49%; in assay [2] (SKNBE2 cells, 24 h, 3 μM), 20 to 49%. In addition, the Dmax at 6 µM in assay [1] (L-363 cells, 24 h, 6 μM) lay in the range of 50 to 79%; in assay [2] (SKNBE2 cells, 24 h, 6 μM) it was 50 to 79%.
`CN1CC2(CCN(c3nccc(Nc4cc(C5CC5)[nH]n4)n3)CC2)C1` [Compound 44, N-(5-Cyclopropyl-1H-pyrazol-3-yl)-2-(2-methyl-2,7-diazaspiro[3.5]nonan-7-yl)pyrimidin-4-amine]: the Dmax at 3 µM is less than 20% in assay [1] (L-363 cells, 24 h, 3 μM) and 20 to 49% in assay [2] (SKNBE2 cells, 24 h, 3 μM). Further, the Dmax at 6 µM in assay [1] (L-363 cells, 24 h, 6 μM) fell in the range of 80 to 100%; in assay [2] (SKNBE2 cells, 24 h, 6 μM) it was 80 to 100%. Also, the Dmax at 1 µM in assay [2] (SKNBE2 cells, 24 h, 1 μM) was less than 20%.
